In brackets after ≈: the same amount, converted by molar mass. Where two headings read alike, the source gives them in different places. Bounds are passed on as bounds.

The test system of one assay is Ser. marcescens 63A001. The assay can be described thus: In vitro antibacterial MIC, Ser. marcescens 63A001. It counts as cell-based. The conditions noted are these: Serratia marcescens. The text has this: (§1) The in vitro activity of the herein described compounds renders them useful for topical application in the form of ointments, creams and the like, or for sterilization purposes, e.g., sick-room utensils.
(§2) Table I compares the in vitro profile of 6-[D-2-phenyl-2-(amidinopropionamido)acetamido]penicillanic acid (PAP) with ampicillin (AMP) and carbenicillin (CAR).

The test system of another assay is A. aerogenes. Kind of assay: In vitro antibacterial MIC, A. aerogenes. It counts as cell-based. The conditions noted are these: Klebsiella aerogenes.
Description: as §1, §2

Assay [1] has as its system E. coli 51A266. The assay can be described thus: In vitro antibacterial MIC, E. coli 51A266. It counts as cell-based. The conditions noted are these: Escherichia coli.
Description: as §1, §2

The test system of the next assay is P. mirabiis 57C015. Kind of assay: In vitro antibacterial MIC, P. mirabiis 57C015. It counts as cell-based.
Description: as §1, §2

For the next assay, the system named is S. aureus 01A005. The assay can be described thus: In vitro antibacterial MIC, S. aureus 01A005. It counts as cell-based. The following applies: Staphylococcus aureus.
Description: as §1, §2

For another assay, the system named is Ps. aeruginosa 52A490. Kind of assay: In vitro antibacterial MIC, Ps. aeruginosa 52A490. It counts as cell-based. The conditions noted are these: Pseudomonas aeruginosa.
Description: as §1, §2

The next assay deals with Kleb. pneumoniae 53A009. Kind of assay: In vitro antibacterial MIC, Kleb. pneumoniae 53A009. The class given is cell-based. The following applies: Klebsiella pneumoniae.
Description: as §1, §2

Assay [2] deals with E. coli 51A266. The assay can be described thus: In vivo protection against E. coli infection in mice (Table IV). The following applies: doses 0.5, 4 and 24 hours after inoculation. How it is done: Table IV presents in vivo comparison data for the four compounds in Table III against E. coli infections in mice.
The values, reported as % survivors, are obtained under standard conditions familiar to those skilled in the art. The test compound is administered to the infected mice by a multiple dosing regimen in which the first dose is given 0.5 hour after inoculation and is repeated 4 and 24 hours later.

A further assay relates to Ps. aeruginosa 52A104. The assay can be described thus: In vitro antibacterial MIC, Ps. aeruginosa 52A104. The class given is cell-based. The conditions noted are these: Pseudomonas aeruginosa.
Description: as §1, §2

The test system of another assay is A. aerogenes 55A002. The assay can be described thus: In vitro antibacterial MIC, A. aerogenes 55A002. The class given is cell-based. The following applies: Klebsiella aerogenes, nutrient broth, Table I.
Description: as §1, §2

In a further assay the test system is P. mirabilis 57C0015. The assay can be described thus: In vitro antibacterial MIC, P. mirabilis 57C0015. The class given is cell-based. The following applies: Proteus mirabilis.
Description: as §1, §2

A further assay concerns Kleb. penumoniae 53A015. Kind of assay: In vitro antibacterial MIC, Kleb. penumoniae 53A015. The class given is cell-based. The following applies: nutrient broth, Table I.
Description: as §1, §2

In assay [3] the test system is E. coli 51A266. Kind of assay: In vivo protection against experimental E. coli infection in mice (Table II). The conditions noted are these: doses 0.5, 4 and 24 hours after inoculation. The method, then:
Table II presents the in vivo comparison data for the three compounds contained in Table I against several experimental infections in mice.
The values (% survivors) are obtained under standard conditions known to those skilled in the art. For the E. coli organism, the test compound is administered to the infected mice by a multiple dosing regimen in which the first dose is given 0.5 hour after inoculation and is repeated 4 and 24 hours later.

A further assay relates to E. coli 51A002. Kind of assay: In vitro antibacterial MIC, E. coli 51A002. It counts as cell-based. The conditions noted are these: Escherichia coli, nutrient broth, Table I.
Description: as §1, §2

The subject of the next assay is gram-negative bacteria. The following applies: cited from earlier work.
The mark [4] stands for this setting: P. mirabilis 57C0015, nutrient broth, Table I, read-out: MIC.

Usually MIC stands for the lowest concentration that inhibits growth of the organism. Turning to `CC1(C)S[C@@H]2[C@H](NC(=O)C(NC(=O)CNC(=N)c3ccc(Br)cc3)c3ccccc3)C(=O)N2[C@H]1C(=O)O` (some centres unmarked) [X = Br], the MIC worked out at 6.25 µg/mL (≈ 10.6 µM) against Ser. marcescens 63A001; 3.12 µg/mL (≈ 5.3 µM) in the assay with A. aerogenes; 0.39 µg/mL (≈ 0.663 µM) with E. coli 51A266 [1]; 3.12 µg/mL (≈ 5.3 µM) against P. mirabiis 57C015; 0.39 µg/mL (≈ 0.663 µM) against S. aureus 01A005; 6.25 µg/mL (≈ 10.6 µM) in the assay on Ps. aeruginosa 52A490. The MIC stood at 12.5 µg/mL (≈ 21.2 µM) against Kleb. pneumoniae 53A009 and 25 µg/mL (≈ 42.5 µM) against Ps. aeruginosa 52A104. Also, the “% Survivors” value in the assay with E. coli 51A266 [2] (PO, 25 mg./kg.) stood at 10%; with E. coli 51A266 [2] (PO, 50 mg./kg.) it was 0%; with E. coli 51A266 [2] (PO, 200 mg./kg.), 0%; with E. coli 51A266 [2] (SC, 25 mg./kg.), 50%; in the assay with E. coli 51A266 [2] (SC, 50 mg./kg.), 60%; in the assay with E. coli 51A266 [2] (SC, 200 mg./kg.) it was 90%.

Consider `CC1(C)S[C@@H]2[C@H](NC(=O)C(NC(=O)CNC(=N)c3ccc(F)cc3)c3ccccc3)C(=O)N2[C@H]1C(=O)O` (some centres unmarked) [X = F], for which the MIC against Ser. marcescens 63A001 turned out to be 6.25 µg/mL (≈ 11.8 µM); with A. aerogenes, 25 µg/mL (≈ 47.4 µM); against E. coli 51A266 [1], 1.56 µg/mL (≈ 2.96 µM); in the assay on P. mirabiis 57C015, 3.12 µg/mL (≈ 5.91 µM); against S. aureus 01A005, 0.39 µg/mL (≈ 0.739 µM); in the assay with Ps. aeruginosa 52A490, 3.12 µg/mL (≈ 5.91 µM). Also, the minimum inhibitory concentration (MIC) in the assay with Kleb. pneumoniae 53A009 came to 25 µg/mL (≈ 47.4 µM); in the assay on Ps. aeruginosa 52A104 it was 12.5 µg/mL (≈ 23.7 µM). In addition, the “% Survivors” value with E. coli 51A266 [2] (PO, 25 mg./kg.) came to 10%; in the assay with E. coli 51A266 [2] (PO, 50 mg./kg.) it was 0%; in the assay with E. coli 51A266 [2] (PO, 200 mg./kg.) it was 10%; in the assay with E. coli 51A266 [2] (SC, 25 mg./kg.) it was 50%; with E. coli 51A266 [2] (SC, 50 mg./kg.), 70%; in the assay with E. coli 51A266 [2] (SC, 200 mg./kg.) it was 90%.

In the case of `CC1(C)S[C@@H]2[C@H](NC(=O)C(NC(=O)CNC(=N)c3ccc(Cl)cc3)c3ccccc3)C(=O)N2[C@H]1C(=O)O` (some centres unmarked) [X = Cl], the MIC with Ser. marcescens 63A001 is 6.25 µg/mL (≈ 11.5 µM); against A. aerogenes it was 3.12 µg/mL (≈ 5.73 µM); against E. coli 51A266 [1], 0.78 µg/mL (≈ 1.43 µM); in the assay with P. mirabiis 57C015, 3.12 µg/mL (≈ 5.73 µM); in the assay with S. aureus 01A005 it was 0.39 µg/mL (≈ 0.717 µM); against Ps. aeruginosa 52A490, 12.5 µg/mL (≈ 23 µM). The figures for the MIC against Kleb. pneumoniae 53A009 and against Ps. aeruginosa 52A104 were 12.5 µg/mL (≈ 23 µM) and 25 µg/mL (≈ 46 µM), respectively. The “% Survivors” value is 0% in the assay with E. coli 51A266 [2] (PO, 25 mg./kg.); 0% with E. coli 51A266 [2] (PO, 50 mg./kg.); 0% in the assay with E. coli 51A266 [2] (PO, 200 mg./kg.); 50% with E. coli 51A266 [2] (SC, 25 mg./kg.); 60% in the assay on E. coli 51A266 [2] (SC, 50 mg./kg.); 70% with E. coli 51A266 [2] (SC, 200 mg./kg.).

With `CC1(C)S[C@@H]2[C@H](NC(=O)C(NC(=O)CNC(=N)c3ccccc3)c3ccccc3)C(=O)N2[C@H]1C(=O)O` (some centres unmarked) [X = H], the MIC came out at 12.5 µg/mL (≈ 24.5 µM) in the assay on Ser. marcescens 63A001; 25 µg/mL (≈ 49.1 µM) against A. aerogenes; 12.5 µg/mL (≈ 24.5 µM) with E. coli 51A266 [1]; 12.5 µg/mL (≈ 24.5 µM) with P. mirabiis 57C015; 0.78 µg/mL (≈ 1.53 µM) against S. aureus 01A005; 12.5 µg/mL (≈ 24.5 µM) with Ps. aeruginosa 52A490. Further, the MIC in the assay with Kleb. pneumoniae 53A009 was 100 µg/mL (≈ 196 µM); with Ps. aeruginosa 52A104, 25 µg/mL (≈ 49.1 µM). Also, the “% Survivors” value with E. coli 51A266 [2] (PO, 25 mg./kg.) amounted to 0%; with E. coli 51A266 [2] (PO, 50 mg./kg.), 0%; with E. coli 51A266 [2] (PO, 200 mg./kg.), 10%; with E. coli 51A266 [2] (SC, 25 mg./kg.), 10%; in the assay on E. coli 51A266 [2] (SC, 50 mg./kg.), 70%; in the assay with E. coli 51A266 [2] (SC, 200 mg./kg.), 90%.

As to `CC1(C)S[C@@H]2[C@H](NC(=O)[C@H](NC(=O)CCC(=N)N)c3ccccc3)C(=O)N2[C@H]1C(=O)O` [PAP, 6-[D-2-phenyl-2-(amidinopropionamido)acetamido]penicillanic acid], the minimum inhibitory concentration (MIC) against A. aerogenes 55A002 is 100 µg/mL (≈ 223 µM); in the assay with P. mirabilis 57C0015 (setting [4]) it was 6.25 µg/mL (≈ 14 µM); against Kleb. penumoniae 53A015, > 200 µg/mL; in the assay on E. coli 51A002 it was 200 µg/mL (≈ 447 µM). The “% Protection (% survivors)” value with E. coli 51A266 [3] (PO, 50 mg./kg.) is 20%; in the assay on E. coli 51A266 [3] (PO, 200 mg./kg.), 30%; in the assay with E. coli 51A266 [3] (SC, 50 mg./kg.) it was 80%; in the assay with E. coli 51A266 [3] (SC, 200 mg./kg.), 80%.

For `CC1(C)S[C@@H]2[C@H](NC(=O)C(C(=O)O)c3ccccc3)C(=O)N2[C@H]1C(=O)O` (some centres unmarked) [CAR, carbenicillin], the MIC is 1.25 µg/mL (≈ 3.3 µM) in the assay with P. mirabilis 57C0015 (setting [4]) and > 200 µg/mL in the assay with Kleb. penumoniae 53A015. Further, the “% Protection (% survivors)” value in the assay with E. coli 51A266 [3] (PO, 50 mg./kg.) is 10%; with E. coli 51A266 [3] (PO, 200 mg./kg.), 70%; with E. coli 51A266 [3] (SC, 50 mg./kg.) it was 90%; with E. coli 51A266 [3] (SC, 200 mg./kg.), 90%.

As to `CC1(C)S[C@@H]2[C@H](NC(=O)[C@H](N)c3ccccc3)C(=O)N2[C@H]1C(=O)O` [AMP, ampicillin], it took 1.56 µg/mL (≈ 4.46 µM) to inhibit growth in the assay with P. mirabilis 57C0015 (57C0015) (MIC). The “% Protection (% survivors)” value came to 80% in the assay on E. coli 51A266 [3] (PO, 50 mg./kg.); 90% with E. coli 51A266 [3] (PO, 200 mg./kg.); 80% in the assay on E. coli 51A266 [3] (SC, 50 mg./kg.); 90% in the assay on E. coli 51A266 [3] (SC, 200 mg./kg.).

Turning to `CC1(C)S[C@@H]2[C@H](NC(=O)C(C(=O)O)c3ccccc3)C(=O)N2[C@H]1C(=O)O` (stereo partly drawn) [α-Carboxybenzylpenicillin], in the assay with gram-negative bacteria (oral), the “utility via oral administration (in words)” value is recorded as “limited utility via oral administration”. In addition, the “efficacy against gram-negative bacteria (in words)” value in the assay on gram-negative bacteria (parenteral route) is reported as “greater efficacy against gram-negative bacteria”.

Values taken from patent US4025506A, “Broad spectrum antibiotics” (Pfizer Inc., priority 1975, dated 1977).
